Measurements reported in patent US20150266850A1 (E.I.DU PONT DE NEMOURS AND COMPANY, priority 2012, published 2015).
Marks after values point to notes of the source that are not given here.

Tests used:
Type in all cases: in vivo
Conditions in all cases: 100 = 100% disease control
[1] = test system: Puccinia recondita f sp. tritici; experiment: Test B: wheat leaf rust, preventive spray on wheat seedlings, visual disease rating
Source text: (§1) General protocol for preparing test suspensions for Tests A-E: the test compounds were first dissolved in acetone in an amount equal to 11% of the final volume and then suspended at the desired concentration (in ppm) in acetone and purified water (50/50 mix by volume) containing 250 ppm of the surfactant Trem® 014 (polyhydric alcohol esters). The resulting test suspensions were then used in Tests A-E. Spraying a 200 ppm test suspension to the point of run-off on the test plants was the equivalent of a rate of 800 g/ha.
The test suspension was sprayed to the point of run-off on wheat seedlings. The following day the seedlings were inoculated with a spore suspension of Puccinia recondita f sp. tritici (the causal agent of wheat leaf rust) and incubated in a saturated atmosphere at 20° C. for 24 h, and then moved to a growth chamber at 20° C. for 7 days, after which time disease ratings were visually made.
(§2) Results for Tests A-E are given in Table A. In the Table, a rating of 100 indicates 100% disease control and a rating of 0 indicates no disease control (relative to the controls). A dash (-) indicates no test results. All results are for 200 ppm except where followed by an “*”, which indicates 40 ppm or “**”, which indicates 50 ppm.

[2] = test system: Erysiphe graminis f. sp. tritici; experiment: Test A: wheat powdery mildew, preventive spray on wheat seedlings, visual disease rating
Source text: as §1
The test suspension was sprayed to the point of run-off on wheat seedlings. The following day the seedlings were inoculated with a spore dust of Erysiphe graminis f. sp. tritici, (the causal agent of wheat powdery mildew) and incubated in a growth chamber at 20° C. for 8 days, after which time disease ratings were visually made.
as §2

[3] = test system: Botrytis cinerea; experiment: Test E: tomato botrytis, preventive spray on tomato seedlings, visual disease rating
Source text: as §1
The test suspension was sprayed to the point of run-off on tomato seedlings. The following day the seedlings were inoculated with a spore suspension of Botrytis cinerea (the causal agent of tomato botrytis) and incubated in saturated atmosphere at 20° C. for 48 h, and then moved to a growth chamber at 27° C. for 3 additional days, after which time disease ratings were visually made.
as §2

[4] = test system: Septoria nodorum; experiment: Test D: wheat glume blotch, preventive spray on wheat seedlings, visual disease rating
Source text: as §1
The test suspension was sprayed to the point of run-off on wheat seedlings. The following day the seedlings were inoculated with a spore suspension of Septoria nodorum (the causal agent of wheat glume blotch) and incubated in a saturated atmosphere at 20° C. for 48 h, and then moved to a growth chamber at 20° C. for 7 days, after which time disease ratings were visually made.
as §2

[5] = test system: Septoria tritici; experiment: Test C: wheat leaf blotch, preventive spray on wheat seedlings, visual disease rating
Source text: as §1
The test suspension was sprayed to the point of run-off on wheat seedlings. The following day the seedlings were inoculated with a spore suspension of Septoria tritici (the causal agent of wheat leaf blotch) and incubated in a saturated atmosphere at 24° C. for 48 h, and then moved to a growth chamber at 20° C. for 19 days, after which time disease ratings were visually made.
as §2

| Molecule | Test B disease control rating ([1]; 40 ppm (*)) | Test A disease control rating ([2]; 40 ppm (*)) | Test E disease control rating ([3]; 40 ppm (*)) | Test D disease control rating ([4]; 40 ppm (*)) | Test C disease control rating ([5]; 40 ppm (*)) | other results |
| --- | --- | --- | --- | --- | --- | --- |
| COC(=O)NCc1cc(-n2ccc(-c3ccc(OC)cc3F)n2)ccc1C [Cmpd 9] | – | – | – | – | – | Test B disease control rating ([1]; 200 ppm): 100%; Test A disease control rating ([2]; 200 ppm): 100%; Test E disease control rating ([3]; 200 ppm): 87%; Test D disease control rating ([4]; 200 ppm): 100%; Test C disease control rating ([5]; 200 ppm): 99% |
| COC(=O)NCc1cc(-n2ncc(-c3ccc(OC)cc3C(F)(F)F)n2)ccc1C [Cmpd 104] | 100* % | 98* % | 0* % | 100* % | 91* % | – |
| COC(=O)NCc1cc(-n2ncc(-c3ccc(F)cc3Cl)n2)ccc1C [Cmpd 87] | 100* % | 98* % | 61* % | 100* % | 88* % | – |
| COC(=O)NCc1cc(-n2ncc(-c3ccc(Cl)cc3Cl)n2)ccc1C [Cmpd 86] | 100* % | 99* % | 54* % | 100* % | 93* % | – |
| COC(=O)NCc1cc(-n2ccc(-c3ccc(C)cc3F)n2)ccc1C [Cmpd 42] | 100* % | 100* % | 65* % | 100* % | 99* % | – |
| COC(=O)NCc1cc(-c2ccn(-c3ccc(Cl)cc3C#N)n2)ccc1C [Cmpd 52] | 100* % | 97* % | 0* % | 100* % | 88* % | – |
| COC(=O)NCc1cc(-n2ccc(-c3ccc(Cl)cc3OCC#N)n2)ccc1C [Cmpd 72] | 100* % | 93* % | 0* % | 100* % | 90* % | – |
| COC(=O)NCc1cc(-n2ccc(-c3ccc(F)cc3C)n2)ccc1C [Cmpd 37] | 100* % | 95* % | 77* % | 100* % | 100* % | – |
| COC(=O)NCc1cc(-c2ncn(-c3ccc(OC)cc3C)n2)ccc1C [Compound 70, methyl N-[[5-[1-(4-methoxy-2-methylphenyl)-1H-1,2,4-triazol-3-yl]-2-methylphenyl]methyl]carbamate] | – | – | – | – | – | pest or weed control at 40 ppm ([1]; 192 h, 40 ppm (*)): 100%; pest or weed control at 40 ppm ([2]; Blumeria graminis, 192 h, 40 ppm (*)): 99%; pest or weed control at 40 ppm ([3]; Botrytis cinerea, 120 h, 40 ppm (*)): 84%; pest or weed control at 40 ppm ([4]; Parastagonospora nodorum, 216 h, 40 ppm (*)): 100%; pest or weed control at 40 ppm ([5]; Zymoseptoria tritici, 504 h, 40 ppm (*)): 96% |
| C#CCOc1cc(Cl)ccc1-c1ccn(-c2ccc(C)c(CNC(=O)OC)c2)n1 [Cmpd 108] | – | – | – | – | – | Test B disease control rating ([1]; 200 ppm): 100%; Test A disease control rating ([2]; 200 ppm): 99%; Test E disease control rating ([3]; 200 ppm): 8%; Test D disease control rating ([4]; 200 ppm): 100%; Test C disease control rating ([5]; 200 ppm): 95% |
| COC(=O)NCc1cc(-n2ccc(-c3ccc(Br)cc3Br)n2)ccc1C [Cmpd 109] | 100* % | 99* % | 0* % | 100* % | 92* % | – |
| COC(=O)NCc1cc(-c2ccn(-c3ccc(Cl)cc3Br)n2)ccc1C [Cmpd 63] | 100* % | 100* % | 99* % | 100* % | 96* % | – |
| COC(=O)NCc1cc(-c2ccn(-c3ccc(Cl)cc3OC)n2)ccc1C [Compound 28, methyl N-[[5-[1-(4-chloro-2-methoxyphenyl)-1H-pyrazol-3-yl]-2-methylphenyl]-methyl]carbamate] | – | – | – | – | – | pest or weed control at 200 ppm ([1]; 192 h, 200 ppm): 100%; pest or weed control at 200 ppm ([2]; Blumeria graminis, 192 h, 200 ppm): 100%; pest or weed control at 200 ppm ([3]; Botrytis cinerea, 120 h, 200 ppm): 57%; pest or weed control at 200 ppm ([4]; Parastagonospora nodorum, 216 h, 200 ppm): 100%; pest or weed control at 200 ppm ([5]; Zymoseptoria tritici, 504 h, 200 ppm): 100% |
| methyl N-[[5-[3-(2,4-dimethoxyphenyl)-1H-pyrazol-1-yl]-2-methylphenyl]methyl]carbamate [Compound 23] | – | – | – | – | – | Test B disease control rating ([1]; 200 ppm): 100%; Test A disease control rating ([2]; 200 ppm): 99%; Test E disease control rating ([3]; 200 ppm): 56%; Test D disease control rating ([4]; 200 ppm): 100%; Test C disease control rating ([5]; 200 ppm): 100% |
| methyl N-[[5-[4-(2,4-dimethylphenyl)-2H-1,2,3-triazol-2-yl]-2-methylphenyl]-methyl]carbamate [Compound 91] | 100* % | 100* % | 33* % | 100* % | 92* % | – |
| methyl N-[[5-[1-(4-methoxy-2-methylphenyl)-1H-1,2,4-triazol-3-yl]-2-methylphenyl]methyl]carbamate [Compound 70] | – | – | – | – | – | Test B disease control rating ([1]; 200 ppm): 100%; Test A disease control rating ([2]; 200 ppm): 100%; Test E disease control rating ([3]; 200 ppm): 0%; Test D disease control rating ([4]; 200 ppm): 100%; Test C disease control rating ([5]; 200 ppm): 100% |
| COC(=O)NCc1cc(-n2ccc(-c3ccc(F)cc3OC)n2)ccc1C [Cmpd 14] | – | – | – | – | – | Test B disease control rating ([1]; 200 ppm): 100%; Test A disease control rating ([2]; 200 ppm): 100%; Test E disease control rating ([3]; 200 ppm): 97%; Test D disease control rating ([4]; 200 ppm): 100%; Test C disease control rating ([5]; 200 ppm): 100% |
| COC(=O)NCc1cc(-c2ccn(-c3ccc(N)cc3Cl)n2)ccc1C [Cmpd 90] | – | – | – | – | – | Test B disease control rating ([1]; 200 ppm): 98%; Test A disease control rating ([2]; 200 ppm): 0%; Test E disease control rating ([3]; 200 ppm): 97%; Test D disease control rating ([4]; 200 ppm): 100%; Test C disease control rating ([5]; 200 ppm): 100% |
| COC(=O)NCc1cc(-c2ccn(-c3ccc(Cl)cc3[N+](=O)[O-])n2)ccc1C [Cmpd 49] | 100* % | 26* % | 8* % | 100* % | 95* % | – |
| COC(=O)NCc1cc(-n2ccc(-c3ccc(C)cc3Cl)n2)ccc1C [Cmpd 41] | 100* % | 100* % | 36* % | 100* % | 100* % | – |
| methyl N-[[5-[3-(2,6-dimethoxy-3-pyridinyl)-1H-pyrazol-1-yl]-2-methylphenyl]-methyl]carbamate [Compound 46] | 100* % | 98* % | 92* % | 100* % | 98* % | – |
